# Experimental data taken from US6841535B2, “Peptide-mediated transfection agents and methods of use” (Active Motif, priority 2000, dated 2005).
# *1 amine or outer side, *2 acyl side, *3 side chain or, on linkers, in order; H or OH if unused. Where a SMILES comes first, the peptide text is derived from it. Where no end group is shown, it is not given here. Cysteamide = C(CS[*:3])N[*:1]
# Columns and labels:
# [1] = test system: HS68, NIH 3T3 and 293 cell lines; experiment: Toxicity of Pep-2 in cell lines (MTT staining); details: concentration of 1 mM
# [2] = physiological conditions; cited from earlier work
# [3] = test system: HS-68, NIH 3T3, C2C12, COS-7 and CEM-SS cell lines; experiment: Cytotoxicity of MPG and MPG/DNA complex, MTT colorimetric assay; format: cell-based
# Method: In order to generalize the use of MPG as an efficient delivery agent, the degree of cytotoxicity of MPG and of the MPG/DNA complex (charge ratio 5:1) were evaluated in several cell lines, including HS-68 and NIH 3T3 fibroblasts, C212 myoblasts, COS-7 kidney cells and human CEM-SS lymphoblasts. […] At much higher concentrations of 0.1 and 1 mM MPG, however, cell viability decreased by ˜25 and 60%, respectively.
# The cytotoxicity of both MPG and MPG/plasmid (pRL-SV40 plasmid encoding reporter R.reniformis luciferase) complexes were investigated in the cell lines mentioned above. Cells grown in 35 mm diameter dishes to 75% confluency (0.5-1×10^6 cells per dish) were incubated with 0.1 μM to 1 mM MPG alone or complexed with DNA in a 5:1 ratio, in 1 ml DMEM for 3 h, after which 10% serum was added. Cell culture medium with MPG or MPG/plasmid was not changed, and cell proliferation was measured over 4 days. Cytotoxicity was evaluated by the MTT colorimetric assay, after removing cell culture medium and replacing it with PBS containing 5 mg/ml of MTT (Mosmann, T. (1983) J. Immunol. Methods, 65: 55-63). Results shown correspond to the averages of four separate experiments.
# HS-68, NIH 3T3, C2C12, cos-7 and CEM-SS cell lines were incubated with 0.1 μM to 1 mM MPG alone (A) and with MPG complexed with DNA (pRL-SV40 plasmid encoding R.reniformis luciferase) in a peptide/DNA ratio of 5:1 (B), at 37° C. in DMEM supplemented with 10% FCS. The cytotoxicity of MPG alone and of MPG/DNA complexes was evaluated in MTT colorimetric assays and the results were expressed as percentages of dye reduction in cell lines incubated without MPG. The results correspond to averages of four separate experiments.
# cardiac cell line H9C2 = experiment: Nuclear labeling of cells by fluorescein ODN-peptide conjugate; format: cell-based
# Method: (§1) For the second ODN, the situation is clearer. This ODN conjugated 3′ with fluorescein and containing an SH group in 5′ for localization reasons has the sequence 5′-[…]-3′ (SEQ ID NO:31) and corresponds to the AS-βCOM antisense sequence complementary to conserved sequence region found in every mRNA encoding β subunit of Ca^2+ channels. After 5 min incubation at 37° C., more than 90% of the cells (cardiac cell line H9C2) were labeled in the nucleus while only 25% of the cells were labeled after 3 hours incubation when using the free ODN.
# [4] = test system: β subunit of Ca^2+ channels; experiment: Ba2+ current density of treated H9C2 cells; format: cell-based; details: all labeled cells
# Method: as §1
# [5] = phosphatidylcholine or phosphatidylserine monolayers; cited from earlier work
# [6] = test system: mammalian fibroblasts, NIH 3T3 fibroblasts or murine L1210 lymphocytes; experiment: Cellular localization of lucifer yellow-linked peptides; format: cell-based; details: 3 min incubation at 10 μM
# [7] = Transmembrane ionic channel formation; parameters: species or system Xenopus laevis; details: voltage-triggered insertion
# Source text: They were characterized on Xenopus laevis oocyte plasma membranes and confirmed on planar lipid bilayers proving thus that channel formation is a true property of the peptide (FIG. 11). The insertion of the peptide in the membrane is voltage-triggered and the channel thus formed are selective for monovalent cations.
# [8] = test system: Acheloplasma laidlawii and Spiroplasma melliferum; details: concentrations much lower than minimal inhibitory concentrations; cited from earlier work
molecule,measurement,setting,value
CC(=O)N[C@@H](Cc1ccc(O)cc1)C(=O)NCC(=O)N[C@@H](Cc1ccccc1)C(=O)N[C@@H](CCCCN)C(=O)N[C@@H](CCCCN)C(=O)N[C@@H](CCCNC(=N)N)C(=O)N[C@@H](CCCNC(=N)N)C(=O)N[C@@H](Cc1c[nH]c2ccccc12)C(=O)N[C@@H](CO)C(=O)N[C@@H](CCC(N)=O)C(=O)N1CCC[C@H]1C(=O)N[C@@H](CCCCN)C(=O)N[C@@H](CCC(=O)O)C(=O)N[C@H](C(=O)N[C@@H](Cc1c[nH]c2ccccc12)C(=O)N[C@@H](CCC(=O)O)C(=O)N[C@H](C(=O)N[C@@H](Cc1c[nH]c2ccccc12)C(=O)N[C@@H](Cc1c[nH]c2ccccc12)C(=O)N[C@H](C(=O)N[C@@H](CCC(=O)O)C(=O)NCCS)[C@@H](C)O)[C@@H](C)O)[C@@H](C)O [Pep-1-cya] (Ac-YGFKKRRWSQPKETWETWWTE-Cysteamide),decrease of cell viability,[1],about 10%
CSCC[C@H](NC(=O)[C@@H](NC(=O)[C@H](CO)NC(=O)CNC(=O)[C@H](C)NC(=O)[C@H](C)NC(=O)CNC(=O)[C@H](CC(C)C)NC(=O)[C@H](Cc1ccccc1)NC(=O)CNC(=O)[C@H](CC(C)C)NC(=O)[C@H](Cc1ccccc1)NC(=O)[C@H](CC(C)C)NC(=O)[C@H](C)NC(=O)CNC(C)=O)[C@@H](C)O)C(=O)NCC(=O)N[C@@H](C)C(=O)N[C@@H](Cc1c[nH]c2ccccc12)C(=O)N[C@@H](CO)C(=O)N[C@@H](CCC(N)=O)C(=O)N1CCC[C@H]1C(=O)N[C@@H](CCCCN)C(=O)N[C@@H](CO)C(=O)N[C@@H](CCCCN)C(=O)N[C@@H](CCCNC(=N)N)C(=O)N[C@@H](CCCCN)C(=O)N[C@H](C(=O)NCCS)C(C)C [MPG] (Ac-GALFLGFLGAAGSTMGAWSQPKSKRKV-Cysteamide),solubility,[2],highly soluble
same,decrease of cell viability,[3]; MPG alone 0.1 mM,~25%
same,decrease of cell viability,[3]; MPG alone 1 mM,~60%
same,cytotoxic effects,"[3]; MPG alone up to 10 μM, 48 h at 37° C.",did not induce any cytotoxic effects
same,cytotoxicity,"[3]; MPG complexed with pRL-SV40 at 5:1 ratio, 0.1 mM MPG",no cytotoxicity could be observed
same,decrease of cell viability,"[3]; MPG complexed with pRL-SV40 at 5:1 ratio, 1 mM MPG",~40%
"5′-ACCAGCCTTCCGATCCACCAGTCATT-3′ (DNA, backbone not given here; 3' fluorescein conjugate, 5' thiol group, peptide conjugated) [second ODN]",cells labeled in the nucleus,"cardiac cell line H9C2; ODN conjugated to peptide, 5 min incubation at 37° C.",more than 90%
same,cells labeled,"cardiac cell line H9C2; free ODN, 3 hours incubation",25%
same,reduction of Ba^2+ current density,[4],≈ 7 fold
MGLGLHLLVLAAALQGAKKKRKV (Ac-MGLGLHLLVLAAALQGAKKKRKV; not fully specified (C-terminus); printed as MGLGLHLLVLAAALQGAKKKRKV) [[2]],surface pressure increase,[5],~15 mN/m
same,final localization of lucifer yellow-linked peptide,[6],localize in the nuclei of the cells
same,channel formation,[7],induce formation of transmembrane ionic channels
same,effect on membrane potential and transmembrane pH gradient,[8],decrease
